In ChEMBL document CHEMBL1130055, “Discovery of a novel class of selective non-peptide antagonists for the human neurokinin-3 receptor. 1. Identification of the 4-quinolinecarboxamide framework” (J Med Chem, 1997):

Target: T1, Substance-K receptor (Homo sapiens, UniProt P21452)
T1 sequence (P21452 whole entry): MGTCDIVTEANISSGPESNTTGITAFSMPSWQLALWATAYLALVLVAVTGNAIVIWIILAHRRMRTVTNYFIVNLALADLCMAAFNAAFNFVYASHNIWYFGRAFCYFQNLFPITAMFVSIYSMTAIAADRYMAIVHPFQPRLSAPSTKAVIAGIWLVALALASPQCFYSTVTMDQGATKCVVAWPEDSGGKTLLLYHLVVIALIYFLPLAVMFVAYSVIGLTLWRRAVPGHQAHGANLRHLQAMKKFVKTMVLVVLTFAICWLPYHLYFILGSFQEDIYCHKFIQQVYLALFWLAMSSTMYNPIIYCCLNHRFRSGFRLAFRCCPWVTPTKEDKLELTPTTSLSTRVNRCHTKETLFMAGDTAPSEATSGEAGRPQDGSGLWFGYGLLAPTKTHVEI
Assay: Inhibition of [125I]neurokinin A (NKA) binding in human Tachykinin receptor 2 of chinese hamster ovary (hNK-2-CHO) cell membranes.

Ki [µM]	SMILES
8.33	COC(=O)[C@@H](NC(=O)c1cc(-c2ccccc2)nc2ccccc12)c1ccccc1
1.22	COC(=O)[C@H](NC(=O)c1cc(-c2ccccc2)nc2ccccc12)c1ccccc1
